Experimental data reported in US11993640B2, “Treating inflammatory lung disease” (United States Government as represented by the Department …, priority 2019, dated 2024).
Non-standard residues stand in square brackets, D forms with d. Residues, ends and D or L forms follow the SMILES beside them. *: point of attachment. Phenylacetyl(2,3,4,5,6-F5) = O=C(Cc1c(F)c(F)c(F)c(F)c1F)*; Phe(F5) = N[C@@H](Cc1c(F)c(F)c(F)c(F)c1F)C(=O)O; Phe(4-Cl) = N[C@@H](Cc1ccc(Cl)cc1)C(=O)O; hArg = N=C(N)NCCCC[C@H](N)C(=O)O; 12Ado = NCCCCCCCCCCCC(=O)O; Nle = CCCC[C@H](N)C(=O)O; Orn = NCCC[C@H](N)C(=O)O; Abu = CC[C@H](N)C(=O)O; PhAc = O=C(Cc1ccccc1)*

Legend:
KATOIII cells = experiment: In vitro cell viability, stomach cancer KATOIII; assay type: cell-based, human; details: 5 μM, 72 h; relative to MIA602 = 1; Table 3A
Experimental: (§1) The inhibitory effects of the various synthesized GHRH antagonists were tested in cell proliferation assays in various human cancer cell lines including stomach cancer (KATOIII, N87), colon cancer (HT-29), urothelial cancer (J82, RT4), pancreatic cancer (PANC-1, CFPAC-1), prostatic cancer (PC3), breast cancer (MX-1, HCC1806), ovarian cancer (SK-OV-3, OVCAR-3) and lung cancer (HCC827, H460).
(§2) Cell culture. Human cancer cell lines including pancreatic (PANC-1 and CFPAC-1), lung (HCC827 and H460), stomach (NCI-N87 and KATOIII), urothelial (J82, RT4), prostatic (PC3), breast (MX-1 and HCC 1806), colorectal (HT-29), and ovarian (SK-OV-3 and OVCAR-3) were obtained from the American Type Culture Collection (ATCC) and cultured at 37° C. in a humidified 95% air/5% CO2 atmosphere in the medium recommended by ATCC.
(§3) In vitro cell viability. Cell viability was analyzed as follows: cancer cells including pancreatic (PANC-1 and CFPAC-1), lung (HCC827 and H460), stomach (NCI-N87 and KATOIII), urothelial (J82, RT4), prostatic (PC3) and breast (MX-1 and HCC 1806), colorectal (HT-29) and ovarian (SK-OV-3 and OVCAR-3) were grown on 96 well plates to ˜60% confluence, the cells were starved for 24 h in culture medium containing 0.5% FBS. Cells were then treated with GHRH antagonists MIA602 AVR compounds at concentrations of 1, 2.5 or 5 μM, or vehicle (0.1% DMSO) in quintuplicates for 72 hours. The medium was replaced every 48 hours. Cell viability was measured using CellTiter 96 aqueous one solution kit (Promega). Inhibitory effects of tested AVR compounds in comparison to that of MIA602 are presented as inhibitory potency.
(§4) Inhibitory effects of selected AVR compounds in comparison to that of MIA602 are presented as inhibitory potency (e.g., percentage of inhibition). […] The cell lines tested including lung cancer HCC827 (FIG. 2A), pancreatic cancer CFPAC-1 (FIG. 2B), stomach cancer N87 (FIG. 2C), colon cancer HT-29 (FIG. 2D), breast cancers MX-1 and HCC1806 (FIGS. 2E, F). Based on the results of cell proliferation assay after cancer cells were treated with antagonist at concentration of 5 μM for 72H, the relative inhibitory potency of AVR antagonists in comparison to MIA-602 is summarized in Table 3 A and B. Over 60 AVR compounds were tested in 12 cancer cell lines.

CFPAC-1 cells = experiment: In vitro cell viability, pancreatic cancer CFPAC-1; assay type: cell-based, human; details: 5 μM, 72 h; relative to MIA602 = 1; Table 3A
Experimental: as §1, §2, §3, §4
(§5) Based on the results of cell proliferation assay after cancer cells were treated with antagonist at concentration of 5 µM for 72H, * at concentration of 2 µM for 72 H.

PANC-1 cells = experiment: In vitro cell viability, pancreatic cancer PANC-1; assay type: cell-based, human; details: 5 μM, 72 h; relative to MIA602 = 1; Table 3A
Experimental: as §1, §2, §3, §4

PC3 cells = experiment: In vitro cell viability, prostatic cancer PC3; assay type: cell-based, human; details: 5 μM, 72 h; relative to MIA602 = 1; Table 3A
Experimental: as §1, §2, §3
Inhibitory effects of selected AVR compounds in comparison to that of MIA602 are presented as inhibitory potency (e.g., percentage of inhibition). […] The cell lines tested including lung cancer HCC827 (FIG. 2A), pancreatic cancer CFPAC-1 (FIG. 2B), stomach cancer N87 (FIG. 2C), colon cancer HT-29 (FIG. 2D), breast cancers MX-1 and HCC1806 (FIGS. 2E, F). […]

HCC1806 cells = experiment: In vitro cell viability, breast cancer HCC1806; assay type: cell-based, human; details: 5 μM, 72 h; relative to MIA602 = 1; Table 3A
Experimental: as §1, §2, §3, §4, §5

MX-1 cells = experiment: In vitro cell viability, breast cancer MX-1; assay type: cell-based, human; details: 5 μM, 72 h; relative to MIA602 = 1; Table 3A
Experimental: as §1, §2, §3, §4, §5

NCI-N87 cells = experiment: In vitro cell viability (CellTiter 96), stomach cancer N87; assay type: cell-based, human; details: 5 μM, 72 h
Experimental: as §1, §2, §3, §4, §5

HCC827 cells = experiment: In vitro cell viability, lung cancer HCC827; assay type: cell-based, human; details: 5 μM, 72 h; relative to MIA602 = 1; Table 3A
Experimental: as §1, §2, §3, §4, §5

J82 cells = experiment: In vitro cell viability, urothelial cancer J82; assay type: cell-based, human; details: 5 μM, 72 h; relative to MIA602 = 1; Table 3A
Experimental: as §1, §2, §3, §4

NCI-N87 xenograft = experiment: Xenograft tumor growth in nude mice, stomach cancer N87; assay type: in vivo; details: Panel D, 10 weeks, 2 μg/day s.c.
Experimental: The peptides' activity was compared with GHRH antagonist MIA-602. All statistical analyzses were performed from comparing GHRA antagonists to non-treated tumor (control).
Peptides and chemicals. GHRH antagonists MIA-602 and AVR-GHRH antagonists (see Table 2 above) were synthesized by solid phase methods and purified by HPLC. The peptides were dissolved in DMSO and further diluted in 10% 1, 2-propanediol. The final concentration of peptides was 50 µg/ml in 10% 1, 2-propanediol containing 0.1% of DMSO.
as §2, with “(NCI-N87), prostate” for “(NCI-N87 and KATOIII), urothelial (J82, RT4), prostatic”, “brest” for “breast”, “HCC-1806),” for “HCC 1806),”
Xenograft models of human cancers in nude mice. Female athymic (NCr nu/nu) nude mice, 5-to 6-weeks-old, obtained from the Envigo labs (Tampa, FL), were housed in laminar airflow cabinets under pathogen-free conditions with a 12-h light/12-h dark schedule, and were fed autoclaved standard chow and water. To generate mice with xenografted tumors, tumor xenografts were initiated by subcutaneous (s.c.) injection of […] human cancer cells into female nude mice. After about 4 weeks the resulting tumors were dissected and collected after removing necrosis tissues. The tumors were then cut into particles with size of ˜3 mm3 and transplanted s.c. by trocar needle into experimental animals. When tumors grew to the size of 50-60 mm3 (by volume), […] of 5 μg of GHRH antagonists MIA-602 or AVR-compounds (2-10 μg as indicated), or vehicle solutions (0.1% DMSO in 10% 1, 2-propanediol) respectively. Tumor sizes were measured weekly.
Statistical analysis. One-way ANOVA followed by Bonferroni comparison were performed. Data are expressed as Mean±SEM. To determine statistical significance between animal groups, two-tailed Student's t-test was conducted. Differences were considered significant when p<0.05.
Results. […] FIG. 1A-N represents in vivo inhibition of tumor growth during the treatment with GHRH antagonist MIA-602 and selected AVR antagonists in nude mice xenografted with various human tumors including pancreatic cancer PANC-1 (FIG. 1A) and CFPAC-1 (FIG. 1I); lung cancer HCC827 (FIGS. 1B, C) and H460 (FIG. 1H); stomach cancer N87 (FIGS. 1D-F); colon cancer HT-29 (FIG. 1G); breast cancer MX-1 and HCC-1806 (FIGS. 1J, K); ovarian cancer SK-OV-3 and OVACAR-3 (FIGS. 1L, M) and prostate cancer PC3 (FIG. 1N). See also Table 5.

SMILES	Relative inhibitory potency, Stomach KATOIII (KATOIII cells)	Relative inhibitory potency, Pancreatic CFPAC-1 (CFPAC-1 cells)	Relative inhibitory potency, Pancreatic Panc-1 (PANC-1 cells)	Relative inhibitory potency, Prostatic PC3 (PC3 cells)	Relative inhibitory potency, Breast HCC1806 (HCC1806 cells)	Relative inhibitory potency, Breast MX-1 (MX-1 cells)	Relative inhibitory potency, Stomach N87 (NCI-N87 cells; relative to MIA602 = 1, Table 3A)	Relative inhibitory potency, Lung HCC827 (HCC827 cells)	Relative inhibitory potency, Urothelial J82 (J82 cells)	In vitro relative inhibitory potency in comparison to MIA-602, NCI-N87 (NCI-N87 cells; Table 3B)	Tumor Growth % (NCI-N87 xenograft)
CCCC[C@H](NC(=O)[C@@H](NC(=O)[C@H](CC(=O)O)NC(=O)[C@H](CCC(N)=O)NC(=O)[C@H](CC(C)C)NC(=O)[C@H](CC(C)C)NC(=O)[C@H](CCCCN)NC(=O)[C@H](CCCNC(=N)N)NC(=O)[C@H](C)NC(=O)[C@H](CO)NC(=O)[C@H](CC(C)C)NC(=O)[C@H](CCC(N)=O)NC(=O)[C@H](CC)NC(=O)[C@H](CC(C)C)NC(=O)[C@@H](NC(=O)[C@H](CCCCN)NC(=O)[C@H](CCCNC(=N)N)NC(=O)[C@H](Cc1ccc(O)cc1)NC(=O)[C@H](CCCNC(=N)N)NC(=O)[C@H](C)NC(=O)[C@@H](NC(=O)[C@H](Cc1ccc(Cl)cc1)NC(=O)[C@@H](NC(=O)[C@H](C)NC(=O)[C@H](CC(=O)O)NC(=O)[C@@H](CCCNC(=N)N)NC(=O)[C@H](Cc1ccc(O)cc1)NC(=O)CCCCCCCCCCCNC(=O)Cc1ccccc1)[C@@H](C)CC)[C@@H](C)O)C(C)C)[C@@H](C)CC)C(=O)N[C@H](CCCNC(=N)N)C(=O)N[C@@H](CCCCNC(=N)N)C(N)=O [AVR-107, PhAC-Ada-Tyr-DArg-Asp-Ala-Ile-Cpa-Thr-Ala-Arg-Tyr-Arg-Lys-Val-Leu-Abu-Gln-Leu-Ser-Ala-Arg-Lys-Leu-Leu-Gln-Asp-Ile-Nle-DArg-Har-NH2] ({PhAc-12Ado}-Y[dR]DAI[Phe(4-Cl)]TARYRKVL[Abu]QLSARKLLQDI[Nle][dR][hArg]-NH2)	1.295	1.080	1.160	0.800	0.950	1.010					
CCCC[C@H](NC(=O)[C@@H](NC(=O)[C@H](CC(=O)O)NC(=O)[C@H](CCC(N)=O)NC(=O)[C@H](CC(C)C)NC(=O)[C@H](CC(C)C)NC(=O)[C@H](CCCN)NC(=O)[C@H](Cc1c[nH]cn1)NC(=O)[C@H](C)NC(=O)[C@H](CO)NC(=O)[C@H](CC(C)C)NC(=O)[C@H](CCC(N)=O)NC(=O)[C@H](CC)NC(=O)[C@H](CC(C)C)NC(=O)[C@@H](NC(=O)[C@H](CCCCN)NC(=O)[C@H](CCCNC(=N)N)NC(=O)[C@H](Cc1c(F)c(F)c(F)c(F)c1F)NC(=O)[C@H](CCCNC(=N)N)NC(=O)[C@H](C)NC(=O)[C@@H](NC(=O)[C@H](Cc1ccc(Cl)cc1)NC(=O)[C@@H](NC(=O)[C@H](C)NC(=O)[C@H](CC(=O)O)NC(=O)[C@@H](CCCNC(=N)N)NC(=O)[C@H](Cc1ccc(O)cc1)NC(=O)CCCCCCCCCCCNC(=O)Cc1ccccc1)[C@@H](C)CC)[C@@H](C)O)C(C)C)[C@@H](C)CC)C(=O)N[C@H](CCCNC(=N)N)C(=O)N[C@@H](CCCCNC(=N)N)C(N)=O [AVR-116, PhAC-Ada-Tyr-DArg-Asp-Ala-Ile-Cpa-Thr-Ala-Arg-5FPhe-Arg-Lys-Val-Leu-Abu-Gln-Leu-Ser-Ala-His-Orn-Leu-Leu-Gln-Asp-Ile-Nle-DArg-Har-NH2] ({PhAc-12Ado}-Y[dR]DAI[Phe(4-Cl)]TAR[Phe(F5)]RKVL[Abu]QLSAH[Orn]LLQDI[Nle][dR][hArg]-NH2)	1.202	1.445	1.208				2.484	2.470	3.034		
CCCC[C@H](NC(=O)[C@@H](NC(=O)[C@H](CC(=O)O)NC(=O)[C@H](CCC(N)=O)NC(=O)[C@H](CC(C)C)NC(=O)[C@H](CC(C)C)NC(=O)[C@H](CCCCN)NC(=O)[C@H](CCCNC(=N)N)NC(=O)[C@H](C)NC(=O)[C@H](CO)NC(=O)[C@H](CC(C)C)NC(=O)[C@H](CCC(N)=O)NC(=O)[C@H](CC)NC(=O)[C@H](CC(C)C)NC(=O)[C@@H](NC(=O)[C@H](CCCCN)NC(=O)[C@H](CCCNC(=N)N)NC(=O)[C@H](Cc1ccc(OC)cc1)NC(=O)[C@H](CCCCNC(=N)N)NC(=O)[C@H](CC(N)=O)NC(=O)[C@@H](NC(=O)[C@H](Cc1ccc(Cl)cc1)NC(=O)[C@@H](NC(=O)[C@H](C)NC(=O)[C@H](CC(=O)O)NC(=O)[C@@H](CCCNC(=N)N)NC(=O)[C@H](Cc1ccc(O)cc1)NC(=O)CCCCCCCCCCCNC(=O)Cc1c(F)c(F)c(F)c(F)c1F)[C@@H](C)CC)[C@@H](C)O)C(C)C)[C@@H](C)CC)C(=O)N[C@H](CCCNC(=N)N)C(=O)N[C@@H](CCCCNC(=N)N)C(=O)NCCCCCCCCCCCC(N)=O [AVR-333, 5FPhAC-Ada-Tyr-DArg-Asp-Ala-Ile-Cpa-Thr-Asn-Har-Tyr(Me)-Arg-Lys-Val-Leu-Abu-Gln-Leu-Ser-Ala-Arg-Lys-Leu-Leu-Gln-Asp-Ile-Nle-DArg-Har-Ada-NH2] ({Phenylacetyl(2,3,4,5,6-F5)-12Ado}-Y[dR]DAI[Phe(4-Cl)]TN[hArg]Y(Me)RKVL[Abu]QLSARKLLQDI[Nle][dR][hArg][12Ado]-NH2)										1.4	454.00%
